Data published in the supplement of paper PMC10307832.

Columns and labels:
Assay in all cases: relative viability (nuclei count vs DMSO), 5 days (fraction); higher = more cells survive
NCI-H2009 = tested on: NCI-H2009
Method in brief: (§1)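 The day after seeding in 1536-well plates, lung cancer cell lines were treated by pin tool with a single drug, or with a fixed anchor-drug dose together with five library-drug doses (not always all listed) in √10 steps. After 5 days, a combined fix-and-stain solution (final 0.05% Triton X-100, 1% formaldehyde, 1 ug/ml Hoechst) was added. Nuclei counted on 4× images gave relative viability as treated counts over vehicle counts, reported as the median of duplicate plates.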

PC-3 [JPC-3] = tested on: PC-3 [JPC-3]
Method in brief: as §1

NCI-H3122 = tested on: NCI-H3122
Method in brief: as §1

NCI-H596 = tested on: NCI-H596
Method in brief: as §1

HARA = tested on: HARA
Method in brief: as §1

NCI-H1944 = tested on: NCI-H1944
Method in brief: as §1

NCI-H1792 = tested on: NCI-H1792
Method in brief: as §1

NCI-H1993 = tested on: NCI-H1993
Method in brief: as §1

NCI-H1793 = tested on: NCI-H1793
Method in brief: as §1

NCI-H2170 = tested on: NCI-H2170
Method in brief: as §1

SW 900 = tested on: SW 900
Method in brief: as §1

A-427 = tested on: A-427
Method in brief: as §1

EMC-BAC-2 = tested on: EMC-BAC-2
Method in brief: as §1

ABC-1 = tested on: ABC-1
Method in brief: as §1

SW 1573 = tested on: SW 1573
Method in brief: as §1

NCI-H2228 = tested on: NCI-H2228
Method in brief: as §1

LK-2 = tested on: LK-2
Method in brief: as §1

LXF-289 = tested on: LXF-289
Method in brief: as §1

COR-L23 = tested on: COR-L23
Method in brief: as §1

HOP-62 = tested on: HOP-62
Method in brief: as §1

SK-MES-1 = tested on: SK-MES-1
Method in brief: as §1

SK-LU-1 = tested on: SK-LU-1
Method in brief: as §1

NCI-H727 = tested on: NCI-H727
Method in brief: as §1

SMILES: C=C1C(=O)O[C@@H](CCCCCCCC)[C@@H]1C(=O)O [C-75] + COc1cccc2cc(-c3nc([C@H]4CC[C@H](C(=O)O)CC4)n4ncnc(N)c34)[nH]c12 [OSI-027] (partner 0.5 µM)
- relative viability (NCI-H2009; first compound 0.08 µM): 0.675
- relative viability (NCI-H2009; first compound 0.253 µM): 0.686
- relative viability (NCI-H2009; first compound 0.8 µM): 0.567
- relative viability (NCI-H2009; first compound 2.53 µM): 0.545
- relative viability (NCI-H2009; first compound 8 µM): 0.426
- relative viability (PC-3 [JPC-3]; first compound 0.08 µM): 0.772
- relative viability (PC-3 [JPC-3]; first compound 0.253 µM): 0.806
- relative viability (PC-3 [JPC-3]; first compound 0.8 µM): 0.736
- relative viability (PC-3 [JPC-3]; first compound 2.53 µM): 0.668
- relative viability (PC-3 [JPC-3]; first compound 8 µM): 0.749
- relative viability (NCI-H3122; first compound 0.08 µM): 1.1
- relative viability (NCI-H3122; first compound 0.253 µM): 1.27
- relative viability (NCI-H3122; first compound 0.8 µM): 0.971
- relative viability (NCI-H3122; first compound 8 µM): 0.854
- relative viability (NCI-H596; first compound 0.08 µM): 0.887
- relative viability (NCI-H596; first compound 0.253 µM): 0.798
- relative viability (NCI-H596; first compound 0.8 µM): 0.72
- relative viability (NCI-H596; first compound 2.53 µM): 0.622
- relative viability (NCI-H596; first compound 8 µM): 0.678
- relative viability (HARA; first compound 0.08 µM): 0.634
- relative viability (HARA; first compound 0.253 µM): 0.587
- relative viability (HARA; first compound 0.8 µM): 0.513
- relative viability (HARA; first compound 2.53 µM): 0.31
- relative viability (HARA; first compound 8 µM): 0.441
- relative viability (NCI-H1944; first compound 0.08 µM): 0.441
- relative viability (NCI-H1944; first compound 0.253 µM): 0.426
- relative viability (NCI-H1944; first compound 0.8 µM): 0.392
- relative viability (NCI-H1944; first compound 8 µM): 0.448
- relative viability (NCI-H1792; first compound 0.08 µM): 0.694
- relative viability (NCI-H1792; first compound 0.253 µM): 0.695
- relative viability (NCI-H1792; first compound 0.8 µM): 0.636
- relative viability (NCI-H1792; first compound 2.53 µM): 0.419
- relative viability (NCI-H1792; first compound 8 µM): 0.712
- relative viability (NCI-H1993; first compound 0.08 µM): 0.558
- relative viability (NCI-H1993; first compound 0.253 µM): 0.61
- relative viability (NCI-H1993; first compound 0.8 µM): 0.491
- relative viability (NCI-H1993; first compound 2.53 µM): 0.539
- relative viability (NCI-H1993; first compound 8 µM): 0.589
- relative viability (NCI-H1793; first compound 0.08 µM): 0.337
- relative viability (NCI-H1793; first compound 0.253 µM): 0.284
- relative viability (NCI-H1793; first compound 0.8 µM): 0.241
- relative viability (NCI-H1793; first compound 2.53 µM): 0.224
- relative viability (NCI-H1793; first compound 8 µM): 0.342
- relative viability (NCI-H2170; first compound 0.08 µM): 0.797
- relative viability (NCI-H2170; first compound 0.253 µM): 0.78
- relative viability (NCI-H2170; first compound 0.8 µM): 0.706
- relative viability (NCI-H2170; first compound 2.53 µM): 0.321
- relative viability (NCI-H2170; first compound 8 µM): 0.703
- relative viability (SW 900; first compound 0.08 µM): 0.555
- relative viability (SW 900; first compound 0.253 µM): 0.842
- relative viability (SW 900; first compound 0.8 µM): 0.441
- relative viability (SW 900; first compound 2.53 µM): 0.509
- relative viability (SW 900; first compound 8 µM): 0.45
- relative viability (A-427; first compound 0.08 µM): 0.516
- relative viability (A-427; first compound 0.253 µM): 0.51
- relative viability (A-427; first compound 0.8 µM): 0.488
- relative viability (A-427; first compound 2.53 µM): 0.439
- relative viability (A-427; first compound 8 µM): 0.39
- relative viability (EMC-BAC-2; first compound 0.08 µM): 0.416
- relative viability (EMC-BAC-2; first compound 0.253 µM): 0.385
- relative viability (EMC-BAC-2; first compound 0.8 µM): 0.384
- relative viability (EMC-BAC-2; first compound 2.53 µM): 0.269
- relative viability (EMC-BAC-2; first compound 8 µM): 0.341
- relative viability (ABC-1; first compound 0.08 µM): 0.498
- relative viability (ABC-1; first compound 0.253 µM): 0.587
- relative viability (ABC-1; first compound 0.8 µM): 0.479
- relative viability (ABC-1; first compound 2.53 µM): 0.379
- relative viability (ABC-1; first compound 8 µM): 0.35
- relative viability (SW 1573; first compound 0.08 µM): 0.705
- relative viability (SW 1573; first compound 0.253 µM): 0.709
- relative viability (SW 1573; first compound 0.8 µM): 0.555
- relative viability (SW 1573; first compound 2.53 µM): 0.634
- relative viability (SW 1573; first compound 8 µM): 0.519
- relative viability (NCI-H2228; first compound 0.08 µM): 0.534
- relative viability (NCI-H2228; first compound 0.253 µM): 0.686
- relative viability (NCI-H2228; first compound 0.8 µM): 0.398
- relative viability (NCI-H2228; first compound 2.53 µM): 0.302
- relative viability (NCI-H2228; first compound 8 µM): 0.517
- relative viability (LK-2; first compound 0.08 µM): 0.209
- relative viability (LK-2; first compound 0.253 µM): 0.212
- relative viability (LK-2; first compound 0.8 µM): 0.222
- relative viability (LK-2; first compound 2.53 µM): 0.16
- relative viability (LK-2; first compound 8 µM): 0.145
- relative viability (LXF-289; first compound 0.08 µM): 0.844
- relative viability (LXF-289; first compound 0.253 µM): 0.758
- relative viability (LXF-289; first compound 0.8 µM): 0.719
- relative viability (LXF-289; first compound 2.53 µM): 0.642
- relative viability (LXF-289; first compound 8 µM): 0.713
- relative viability (COR-L23; first compound 0.08 µM): 0.74
- relative viability (COR-L23; first compound 0.253 µM): 0.886
- relative viability (COR-L23; first compound 0.8 µM): 0.767
- relative viability (COR-L23; first compound 2.53 µM): 0.676
- relative viability (COR-L23; first compound 8 µM): 0.701
- relative viability (HOP-62; first compound 0.08 µM): 0.816
- relative viability (HOP-62; first compound 0.253 µM): 0.825
- relative viability (HOP-62; first compound 0.8 µM): 0.865
- relative viability (HOP-62; first compound 2.53 µM): 0.738
- relative viability (HOP-62; first compound 8 µM): 0.705
- relative viability (SK-MES-1; first compound 0.08 µM): 0.738
- relative viability (SK-MES-1; first compound 0.253 µM): 0.666
- relative viability (SK-MES-1; first compound 0.8 µM): 0.568
- relative viability (SK-MES-1; first compound 2.53 µM): 0.469
- relative viability (SK-MES-1; first compound 8 µM): 0.549
- relative viability (SK-LU-1; first compound 0.08 µM): 0.348
- relative viability (SK-LU-1; first compound 0.253 µM): 0.379
- relative viability (SK-LU-1; first compound 0.8 µM): 0.416
- relative viability (SK-LU-1; first compound 2.53 µM): 0.319
- relative viability (SK-LU-1; first compound 8 µM): 0.308
- relative viability (NCI-H727; first compound 0.08 µM): 0.893
- relative viability (NCI-H727; first compound 0.253 µM): 0.894
- relative viability (NCI-H727; first compound 0.8 µM): 0.575
- relative viability (NCI-H727; first compound 8 µM): 0.98
